The values that follow come from patent publication US12662475B2, “Difluorocyclohexyl derivatives as IL-17 modulators” (UCB BIOPHARMA SRL, priority 2020, dated 2026).

pIC50: −log10 of the molar value. Structures can show the parent of a compound that is named as a salt.

The test deals with IL-17 induced IL-6 release from human dermal fibroblasts. Put plainly: Inhibition of IL-17A induced IL-6 release from dermal fibroblast cell line (HDF cell line assay). Conditions: Incubation Time 5 h. It is filed as cell-based. The protocol: Inhibition of IL-17A Induced IL-6 Release from Dermal Fibroblast Cell Line
The purpose of this assay is to test the neutralising ability to IL-17 proteins, in a human primary cell system.
The resultant IL-6 response was then measured using a homogenous time-resolved FRET kit from Cisbio. The kit utilises two monoclonal antibodies, one labelled with Eu-Cryptate (Donor) and the second with d2 or XL665 (Acceptor).
The ability of a compound to inhibit IL-17 induced IL-6 release from human dermal fibroblasts is measured in this assay.
The TrypLE was neutralised using complete medium (45 mL) and the cells were centrifuged at 300×g for 3 minutes. […] The cells were left for a minimum of three hours, at 37° C./5% CO2, to adhere to the plate.
10 μL from the aqueous dilution plate was transferred to the reagent plate containing 30 μL of the diluted cytokines, to give a 2.5% DMSO solution. The compounds were incubated with the cytokine mixtures for 1 h or 5 h at 37° C. After the incubation, 10 μL was transferred to the assay plate, to give a […] solution, then incubated for 18-20 h at 37° C./5% CO2.

As usually defined, the pIC50 is the negative decadic logarithm of the IC50, by convention in mol/L. A lower pIC50 goes with a large IC50.

In turn, `Cc1nonc1C(=O)N[C@H](c1nc2c(F)c([C@H](CC(F)F)C(=O)N[C@@H](C)C(F)(F)F)ccc2[nH]1)C1CCC(F)(F)CC1` (single isomer, unassigned) [Example 44] showed a pIC50 of 8.00.

The molecule `Cc1nonc1C(=O)N[C@H](c1nc2c(F)c([C@@H](CC(F)F)C(=O)N[C@@H](C)C(F)(F)F)ccc2[nH]1)C1CCC(F)(F)CC1` (single isomer, unassigned) [Example 45] showed a pIC50 of 6.30.

`Cc1nonc1C(=O)N[C@H](c1nc2c(F)c([C@H](CC(F)F)C(=O)N[C@H](C)C(F)(F)F)ccc2[nH]1)C1CCC(F)(F)CC1` (single isomer, unassigned) [Example 47] gave a negative logarithm of the IC50 (pIC50) of 6.80.

`Cc1nonc1C(=O)N[C@H](c1nc2c(F)c([C@@H](CC(F)F)C(=O)N[C@H](C)C(F)(F)F)ccc2[nH]1)C1CCC(F)(F)CC1` (single isomer, unassigned) [Example 48] had a negative-log IC50 (pIC50) of 5.50.

Consider `O=C(N[C@H](c1nc2c(F)c([C@H](CC(F)F)C(=O)NCC(F)(F)F)ccc2[nH]1)C1CCC(F)(F)CC1)c1ccccc1F` (single isomer, unassigned) [Example 50], for which the pIC50 was 8.00.

In the case of `O=C(N[C@H](c1nc2c(F)c([C@@H](CC(F)F)C(=O)NCC(F)(F)F)ccc2[nH]1)C1CCC(F)(F)CC1)c1ccccc1F` (single isomer, unassigned) [Example 51], the negative logarithm of the IC50 (pIC50) was 5.80.

In turn, `CC(C)n1ncnc1C(=O)N[C@H](c1nc2c(F)c([C@@H](CC(F)F)C(=O)NCC(C)(F)F)ccc2[nH]1)C1CCC(F)(F)CC1` (single isomer, unassigned) [Example 54] showed a pIC50 of 7.10. This pIC50 is 1.30 log units higher than that of the molecule before.

On to `CC(C)n1ncnc1C(=O)N[C@H](c1nc2c(F)c([C@H](CC(F)F)C(=O)NCC(C)(F)F)ccc2[nH]1)C1CCC(F)(F)CC1` (single isomer, unassigned) [Example 55], for which the pIC50 was 8.40.

`CC(C)n1ncnc1C(=O)N[C@H](c1nc2c(F)c([C@@H](CC(F)F)C(=O)NCC(C)(C)F)ccc2[nH]1)C1CCC(F)(F)CC1` (single isomer, unassigned) [Example 57] showed a pIC50 of 5.60.

As for `CC(C)n1ncnc1C(=O)N[C@H](c1nc2c(F)c([C@H](CC(F)F)C(=O)NCC(C)(C)F)ccc2[nH]1)C1CCC(F)(F)CC1` (single isomer, unassigned) [Example 58], the negative logarithm of the IC50 (pIC50) is 8.10.

For the molecule `CC(C)(F)CNC(=O)[C@H](CC(F)(F)F)c1ccc2[nH]c([C@@H](NC(=O)c3nonc3C3CC3)C3CCC(F)(F)CC3)nc2c1F` (single isomer, unassigned) [Example 63], the negative logarithm of the IC50 (pIC50) was 6.80.

Molecule `CC(C)(F)CNC(=O)[C@@H](CC(F)(F)F)c1ccc2[nH]c([C@@H](NC(=O)c3nonc3C3CC3)C3CCC(F)(F)CC3)nc2c1F` (single isomer, unassigned) [Example 64] had a pIC50 of 8.70.

The molecule `CC(C)n1ncnc1C(=O)N[C@H](c1nc2c(F)c([C@@H](CC(F)(F)F)C(=O)NCC(C)(F)F)ccc2[nH]1)C1CCC(F)(F)CC1` (single isomer, unassigned) [Example 69] showed a pIC50 of 5.60.

`CC(C)n1ncnc1C(=O)N[C@H](c1nc2c(F)c([C@H](CC(F)(F)F)C(=O)NCC(C)(F)F)ccc2[nH]1)C1CCC(F)(F)CC1` (single isomer, unassigned) [Example 70] had a pIC50 of 8.20.

For `CC(C)n1ncnc1C(=O)N[C@H](c1nc2c(F)c([C@@H](CC(F)(F)F)C(=O)NCC(C)(C)F)ccc2[nH]1)C1CCC(F)(F)CC1` (single isomer, unassigned) [Example 72], the pIC50 is 5.80.

`CC(C)n1ncnc1C(=O)N[C@H](c1nc2c(F)c([C@H](CC(F)(F)F)C(=O)NCC(C)(C)F)ccc2[nH]1)C1CCC(F)(F)CC1` (single isomer, unassigned) [Example 73] had a pIC50 of 8.20.

`CC(F)(F)CNC(=O)[C@H](CC(F)(F)F)c1ccc2[nH]c([C@@H](NC(=O)C3(F)CC3)C3CCC(F)(F)CC3)nc2c1F` (single isomer, unassigned) [Example 83]: the pIC50 is 5.70.

With `CC(F)(F)CNC(=O)[C@@H](CC(F)(F)F)c1ccc2[nH]c([C@@H](NC(=O)C3(F)CC3)C3CCC(F)(F)CC3)nc2c1F` (single isomer, unassigned) [Example 84], the negative-log IC50 (pIC50) was 7.60.

For `CC(C)n1ncnc1C(=O)N[C@H](c1nc2c(F)c([C@@H](CC(C)(F)F)C(=O)NCC(C)(F)F)ccc2[nH]1)C1CCC(F)(F)CC1` (single isomer, unassigned) [Example 86], the pIC50 is 5.20.

Molecule `CC(C)n1ncnc1C(=O)N[C@H](c1nc2c(F)c([C@H](CC(C)(F)F)C(=O)NCC(C)(F)F)ccc2[nH]1)C1CCC(F)(F)CC1` (single isomer, unassigned) [Example 87] gave a negative-log IC50 (pIC50) of 8.10. Against the preceding molecule, the pIC50 is 2.90 log units higher.

`Cc1nonc1C(=O)N[C@H](c1nc2c(F)c(C(CC(F)(F)F)C(=O)NCCC(F)(F)F)ccc2[nH]1)C1CCC(F)(F)CC1` (stereo partly drawn) [Example 13, N—[(S)-(4,4-Difluorocyclohexyl){4-fluoro-5-[3,3,3-trifluoro-1-(3,3,3-trifluoropropyl-carbamoyl)propyl]-1H-benzimidazol-2-yl}methyl]-4-methyl-1,2,5-oxadiazole-3-carboxamide] showed a negative logarithm of the IC50 (pIC50) of 8.30.

With `Cc1nonc1C(=O)N[C@H](c1nc2c(F)c(C(CC(F)(F)F)C(=O)NCC3CC3(F)F)ccc2[nH]1)C1CCC(F)(F)CC1` (stereo partly drawn) [Example 14, N—[(S)-(4,4-Difluorocyclohexyl)(5-{1-[(2,2-difluorocyclopropyl)methylcarbamoyl]-3,3,3-trifluoropropyl}-4-fluoro-1H-benzimidazol-2-yl)methyl]-4-methyl-1,2,5-oxadiazole-3-carboxamide], the negative-log IC50 (pIC50) was 8.10.

For the molecule `Cc1nonc1C(=O)N[C@H](c1nc2nc(C3(C(=O)NCC(F)(F)F)CCC(F)(F)CC3)ccc2[nH]1)C1CCC(F)(F)CC1` [Example 39, N—[(S)-(4,4-Difluorocyclohexyl){5-[4,4-difluoro-1-(2,2,2-trifluoroethylcarbamoyl)-cyclohexyl]-1H-imidazo[4,5-b]pyridin-2-yl}methyl]-4-methyl-1,2,5-oxadiazole-3-carboxamide Monoformate Salt], the pIC50 is 8.30.

The molecule `Cc1nonc1C(=O)N[C@H](c1nc2c(F)c(C(CC(F)F)C(=O)NC(C3CC3)C(F)(F)F)ccc2[nH]1)C1CCC(F)(F)CC1` (stereo partly drawn) [Example 52, N—[(S)-(5-{1-[(1-Cyclopropyl-2,2,2-trifluoroethyl)carbamoyl]-3,3-difluoropropyl}-4-fluoro-1H-benzimidazol-2-yl)(4,4-difluorocyclohexyl)methyl]-4-methyl-1,2,5-oxadiazole-3-carboxamide] had a pIC50 of 8.30.

In turn, `CC(C)n1ncnc1C(=O)N[C@H](c1nc2nc(C3(C(=O)NCC(F)(F)F)CCC(F)(F)CC3)ccc2[nH]1)C1CCC(F)(F)CC1` [Example 77, N—[(S)-(4,4-Difluorocyclohexyl){5-[4,4-difluoro-1-(2,2,2-trifluoroethylcarbamoyl)-cyclohexyl]-1H-imidazo[4,5-b]pyridin-2-yl}methyl]-2-isopropyl-1,2,4-triazole-3-carboxamide] showed a negative logarithm of the IC50 (pIC50) of 7.90.

Molecule `O=C(N[C@H](c1nc2nc(C3(C(=O)NCC(F)(F)F)CCC(F)(F)CC3)ccc2[nH]1)C1CCC(F)(F)CC1)C1(F)CC1` [Example 78, 1-(2-{(S)-(4,4-Difluorocyclohexyl)[(1-fluorocyclopropanecarbonyl)amino]methyl}-1H-imidazo[4,5-b]pyridin-5-yl)-4,4-difluoro-N-(2,2,2-trifluoroethyl)cyclohexanecarboxamide] showed a pIC50 of 7.80.
